Source: patent US6013642A, “Use of estrone derivatives as steroid sulphatase inhibitors” (priority 1994, dated 2000)

Experiments:
[1] = tested on: mouse contact sensitisation model; assay: Contact sensitisation (oxazalone, ear swelling) in mice; format: in vivo; conditions: for ear swelling response (steroid alone) / normal ear swelling (steroid alone): 5 mg/kg s.c. days 0 and 4; for increase in ear thickness (steroid alone): 100 μg/mouse s.c. days 0, 4 and 5; for normal ear swelling (steroid alone): Experiment 4, FIG. 7
Protocol: 1. Contact Sensitisation (CS)
On day 0, mice were painted on their shaved right flank with 50 μl 2.5% oxazalone or vehicle (acetone 4:1 olive oil). On day 5 animals were challenged on their dorsal right ear surface with 25 μl of either 0.75% or 0.25% oxazalone. Prior to ear challenge, and 24, 48 and 72 hour post challenge ear thickness was measured using an engineer's micrometers. Ear swelling is determined as the difference in thickness prior and post challenge. The data are expressed as percentage change from the vehicle treated groups given sensitisation and challenge.
DHEA, DHEAS were administered at various times, generally at time of sensitisation (day 0) and time of challenge (day 3 or 4-DTH model, day 4 or 5-(CS-model) in order to obtain an augmentation of the immune response above non-steroid treated animals.
Different doses of the inhibitors have been used, and compared to the effect of dexamethasone as potential immunosuppressive/anti-inflammatory agents.

[2] = tested on: mouse delayed type hypersensitivity model; assay: Delayed type hypersensitivity (SRBC, footpad swelling) in the mouse; format: in vivo; conditions: FIG. 11; 5 mg/kg s.c.; 24 h post challenge
Protocol: 2. Delayed Type Hypersensitivity (DTH)
On day 0, animals were injected intravenously with 10^6 washed SRBC in 0.1 ml saline. Four days later animals were challenged in the right hind footpad with 10^6 washed SRBC in 50 μl saline. Footpad thickness is measured prior to challenge, 24, 48 and 72 hours post challenge using calipers. Footpad swelling is determined as the difference in thickness prior and post challenge. The data are expressed as percentage change from the vehicle treated groups given sensitisation and challenge.
Animals were randomised into 10 groups (n=7-8) and steroids given on day 0 and 4.
Steroids were given on day 0 and 3 subcutaneously. Response at 24 h post challenge. Results given as mean±sem. $, *p<0.05 ANOVA.

[3] = tested on: mouse contact sensitisation model; assay: Cellular infiltrate (anti-CD3 / anti-Mac-1 positive cells) in challenged ears, contact sensitisation; format: in vivo, mice; conditions: Experiment 7, FIG. 10; DHEAS 5 mg/kg days 0 and 5; 24 h following challenge
Protocol: Animals were randomised into 7 groups (n=7-10) and steroids given on days 0 and 5. At 24 h following challenge, ears were removed, fixed and stained with either an anti-CD3 (T-cells) or anti-Mac-1 (monocytes/macrophages) antibody and the number of positive cells counted in 10 random fields.

carrageenan pleurisy = assay: Carrageenan pleurisy; format: in vivo, Wistar Rats; conditions: FIG. 14; DEX 1 mg/kg p.o. at T=-1 h; six hours
Protocol: Wistar Rats were anaesthetised and given intra-pleural injections of 0.5% carrageenan in saline at time 0. Six hours later the animals were killed and pleural cavity lavaged with 1 ml. citrated saline. Volume of fluid exudate and exudate cell concentration were measured. Animals were randomised to 5 treatment groups (n=6).

[4] = Metabolites Experiment 3, FIG. 17
[5] = Experiment 1, FIG. 4, 48 post challenge
[6] = Experiment 2, FIG. 5, 100 μg/mouse s.c. days 0 and 5, 24 h post-challenge

Structure (SMILES) | ear swelling response (steroid alone) [1, 4] | increase in ear thickness (steroid alone) [1, 5] | ear swelling response [1, 6] | normal ear swelling (steroid alone) [1] | foot swelling response (steroid alone) [2] | other results
CC12CCC(OS(=O)(=O)O)CC1=CCC1C2CCC2(C)C(O)CCC12 (stereo not drawn) [AEDS] | stimulatory response |  |  |  |  | ear swelling response ([1]; Metabolites Experiment 2, FIG. 16, AEDS 0.0005-5 mg/kg s.c. days 0 and 4): can augment the ear swelling response; dose for augmentation of ear swelling, less than seen with DHEAS ([1]; Metabolites Experiment 2, FIG. 16, relative to DHEAS): at least 1000 fold; substrate for the sulphatase enzyme in vivo [1, 4]: can serve as a physiological substrate for the sulphatase enzyme in vivo
CN(C)S(=O)(=O)Oc1ccc2c(c1)CC[C@@H]1[C@@H]2CC[C@]2(C)C(=O)CC[C@@H]12 [CT 2210, Estrone-3-0-(N,N-dimethyl)sulphamate] |  |  |  |  |  | ear swelling, inhibitor alone ([1]; Experiment 1, FIG. 4, 2 mg/mouse s.c. days 0, 4 and 5, 48 post challenge): able to attenuate the ear swelling seen in the absence of DHEA and DHEAS; reversal of stimulatory effects of DHEA and DHEAS on ear swelling ([1]; Experiment 1, FIG. 4, inhibitor 2 mg/mouse with DHEA or DHEAS 100 μg/mouse s.c. days 0, 4 and 5, 48 post challenge): able to reverse the stimulatory effects of either DHEA and DHEAS
C[C@]12CC[C@H](O)CC1=CC[C@@H]1[C@@H]2CC[C@]2(C)C(=O)CC[C@@H]12 [DHEA, Dehydroepiandrosterone] |  | augmented the normal increase in ear thickness | significantly augmented the response | augmented the normal ear swelling | clearly pro-immune (or pro-inflammatory) | ear swelling response ([1]; Metabolites Experiment 1, FIG. 15, DHEA 0.005-5 mg/kg, AED 0.05-5 mg/kg s.c. days 0 and 4): can augment the ear swelling response
C[C@]12CC[C@H](OS(=O)(=O)O)CC1=CC[C@@H]1[C@@H]2CC[C@]2(C)C(=O)CC[C@@H]12 [DHEAS, DHEA sulphate] | stimulatory response | augmented the normal increase in ear thickness | significantly augmented the response | augmented the normal ear swelling | clearly pro-immune (or pro-inflammatory) | anti-glucocorticoid effect on ear swelling ([1]; Experiment 3, FIG. 6, DHEAS 0.0005-50 mg/kg with corticosterone 5 mg/kg s.c. days 0 and 4): functional anti-glucocorticoid effect; immune and inflammatory cell infiltrate into challenged ears [3]: can augment both immune and inflammatory cell infiltrate into challenged ears
C[C@@H]1C[C@H]2[C@@H]3CCC4=CC(=O)C=C[C@]4(C)[C@@]3(F)[C@@H](O)C[C@]2(C)[C@@]1(O)C(=O)CO [Dexamethasone, dexamethasone] |  | reduced the response | inhibited | inhibited |  | fluid leakage (exudate) (carrageenan pleurisy): can completely inhibit fluid leakage; reduction of cellular influx (carrageenan pleurisy): 68%; degree of ear swelling ([1]; Experiment 5, FIG. 8, DEX 5 mg/kg s.c. days 0 and 4, 24 h): inhibited the degree of ear swelling
